Laboratory results taken from patent US20050090402A1, “Use of defined copolymers as adjuvants and agents in the agrotechnical domain” (priority 2001, published 2005).

Experiments:
Type in all cases: in vivo
Settings in all cases: bentazone 0.125 kg/ha, no adjuvant, 100 = complete destruction, 0 = no damage
[1] = tested on: soybeans (Glycine max; GLXMA); assay: Herbicidal efficacy of bentazone tank mixes, greenhouse post-emergence, soybeans
Procedure: (§1) The copolymers shown in Table 1 were applied by the tank mix method together with Basagran (480 g/l bentazone). The application rate per ha was 0.125 kg of bentazone and 2, 1.0 and 0.5 kg of a.i./ha copolymer or comparative surfactant Wettol LF 700 (alcohol alkoxylate). The herbicidal effect was assessed in a greenhouse experiment. The test plants used were soybeans (Glycine max; GLXMA), Chinese hemp (Abutilon theophrasti; ABUTH), white goosefoot (Chenopodium album; CHEAL) and ladysthumb (Polygonum persicaria; POLPE). These plants were either sown separately for each species or first grown separately as seedlings and transplanted into the experimental containers a few days before the treatment. The experimental containers used were plastic pots containing loamy sand and approximately 3.0% of humus as substrate. […] The application rate for the post-emergence treatment was 0.125 kg a.i./ha bentazone and 2.0, 1.0 or 0.5 kg a.i./ha copolymer or comparative surfactant.
(§2) The test period extended over 2 to 4 weeks. During this time, the plant species were kept specifically at night-time temperatures above 14° C. and day-time temperatures between 20 and 31° C., tended, and their response to the individual treatments was evaluated.
(§3) Evaluation was done using a scale from 0 to 100. […]

[2] = tested on: Chinese hemp (Abutilon theophrasti; ABUTH); assay: Herbicidal efficacy of bentazone tank mixes, greenhouse post-emergence, Chinese hemp
Procedure: as §1, §2, §3

[3] = tested on: ladysthumb (Polygonum persicaria; POLPE); assay: Herbicidal efficacy of bentazone tank mixes, greenhouse post-emergence, ladysthumb
Procedure: as §1, §2, §3

[4] = tested on: white goosefoot (Chenopodium album; CHEAL); assay: Herbicidal efficacy of bentazone tank mixes, greenhouse post-emergence, white goosefoot
Procedure: as §1, §2, §3

## CC(C)N1C(=O)c2ccccc2NS1(=O)=O [Bentazone, bentazone]
[1]
  herbicidal effect GLXMA (scale 0 to 100): 0
[2]
  herbicidal effect ABUTH (scale 0 to 100): 64
[3]
  herbicidal effect POLPE (scale 0 to 100): 86
[4]
  herbicidal effect CHEAL (scale 0 to 100): 9
